The assay addresses T1, human adrenaline α1A receptor (Homo sapiens, UniProt P35348).
T1 construct: expressed in transfected cells; membrane fraction
T1 sequence (P35348 1-466): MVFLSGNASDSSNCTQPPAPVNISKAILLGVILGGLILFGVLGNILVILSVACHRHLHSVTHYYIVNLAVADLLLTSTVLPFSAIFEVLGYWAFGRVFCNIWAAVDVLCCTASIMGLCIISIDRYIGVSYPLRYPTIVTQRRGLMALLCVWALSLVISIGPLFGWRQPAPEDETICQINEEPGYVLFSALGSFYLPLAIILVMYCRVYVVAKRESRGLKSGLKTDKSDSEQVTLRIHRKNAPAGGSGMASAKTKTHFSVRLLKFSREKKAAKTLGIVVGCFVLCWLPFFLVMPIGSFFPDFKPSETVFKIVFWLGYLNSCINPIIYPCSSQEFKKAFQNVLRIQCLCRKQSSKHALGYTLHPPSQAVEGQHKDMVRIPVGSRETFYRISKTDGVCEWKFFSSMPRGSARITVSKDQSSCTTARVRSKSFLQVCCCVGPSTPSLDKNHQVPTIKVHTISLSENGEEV
The assay is described as follows: Measurement of α1A receptor binding inhibitory activity ([3H]-Prazosin binding to CHO-K1 membrane fraction). As to conditions: concentration reducing [3H]-Prazosin (2.5 nM) binding to the membrane fraction to 50%. As for the experimental part: b) Measurement of α1A Receptor Binding Inhibitory Activity
The following gene manipulation method was carried out according to the method described in a textbook (Miniatis et al., Molecular Cloning, Cold Spring Harbor Laboratory, 1989) or the method described in protocol attached to a reagent.
(i) Preparation of Expression Plasmid for Human Adrenaline α1A Receptor
An adrenaline α1A receptor gene was cloned from a human liver cDNA by a PCR method. A PCR reaction was performed with Gene Amp PCR System 9700 (Applied Biosystems) using 200 ng of a human liver cDNA library (TAKARA SHUZO Co., Ltd.) as a template and using TaKaRa Pyrobest DNA Polymerase (TAKARA SHUZO CO., Ltd) and adding each 50 pmol of a primer set 5′-[…]-3′ [SEQ ID No.: 1] and 5′-[…]-3[SEQ ID No.: 2] prepared making reference to a nucleotide sequence of an adrenaline α1A receptor gene which was reported by Hirasawa A. et al. (Biochem. Biophys. Res. Commun., 195, 902–909(1993)) (reaction condition: 45 cycles of 15 seconds at 94° C., and 3 minutes 30 seconds at 68° C.).
The obtained PCR fragment was digested with restriction enzymes Eco RI (TAKARA SHUZO Co. Ltd.) and Sal I. (TAKARA SHUZO Co. Ltd.), and agarose gel electrophoresis was performed to recover DNA fragments. The DNA fragments were mixed with an animal cell expression plasmid pMSR αneo (Administration No. A99–0013) which had been digested with Eco RI and Sal I, ligated with DNA Ligation Kit Ver. 2 (TAKARA SHUZO Co. Ltd.), and a competent cell of Esherichia coli JM109 was transformed to obtain a plasmid pMSR αneoA dreα1A.
(ii) Introduction of Plasmid for Expression of Human Adrenaline α1A Receptor into CHO-K1 Cell and Preparation of Membrane Fraction
CHO-K1 cells which had been subcultured in a 150 cm^2 culturing flask (Corning Coaster) using Ham F12 medium (Invitrogen) containing 10% fetal bovine serum (TRACE SCIENTIFIC) was peeled with 0.5 g/L trypsin-0.2 g/L EDTA(Invitrogen), cells were washed with D-PBS(−) (Invitrogen), centrifuged (1000 rpm, 5 min.), and suspended in D-PBS(−). […]

pIC50: −log10 of the molar value.

In turn, `COc1ccccc1CCNCCCCCC(=O)c1cc2c3c(c1)CCN3C(=O)CC2.Cl` [Example 20, 8-(6-[[2-(2-Methoxyphenyl)ethyl]amino]hexanoyl]-1,2,5,6-tetrahydro-4H-pyrrolo[3,2,1-ij]quinolin-4-one hydrochloride] showed a pIC50 of 6.78.

Source of the values: US7132547B2, “Preventives/remedies for urinary disturbance” (priority 2001, dated 2006).
